Laboratory results taken from paper doi:10.1101/2024.10.11.617762v1 (biorxiv, 2024).

Key:
[1] = target: T1, N-CTD (C-terminal domain of the SARS-CoV-2 nucleocapsid (N) protein) (Severe acute respiratory syndrome coronavirus 2, UniProt P0DTC9); assay: biochemical; type: binding
[2] = target: T1, N-CTD (C-terminal domain of the SARS-CoV-2 nucleocapsid (N) protein); assay: fluorescence intensity inhibition of FAM-RNA binding; type: biochemical

| Structure (SMILES) | Kd [1] [µM] | IC50 [2] [µM] |
| --- | --- | --- |
| CC1(C)S[C@@H]2[C@H](NC(=O)[C@H](N)c3ccccc3)C(=O)N2[C@H]1C(=O)O [ampicillin] | 28 ± 1.2 | 10.4 ± 0.2 |
| CO/N=C(\C(=O)N[C@@H]1C(=O)N2C(C(=O)O)=C(CSc3nc(=O)c(=O)[nH]n3C)CS[C@H]12)c1csc(N)n1 [ceftriaxone] | 18 ± 1.3 | 12.4 ± 2.4 |
| CO/N=C(\C(=O)N[C@@H]1C(=O)N2C(C(=O)O)=C(COC(N)=O)CS[C@H]12)c1ccco1 [cefuroxime] | 55 ± 4.2 | 15.4 ± 2.8 |
